The source of these data is PMC6409644, “The Inhibitory Effect of Celangulin V on the ATP Hydrolytic Activity of the Complex of V-ATPase Subunits A and B in the Midgut of Mythimna separata” (Toxins, 2019).

Data set [1] concerns the target T1, V-ATPase subunit A (TSCA mutant) in complex with subunit B (Mythimna separata, UniProt A0A0U1XFD8+A0AAD8DTT7, A0AAD8DTT7:C254A/A0AAD8DTT7:T257S).
T1 construct: gene PYW07_012492; with V-ATPase subunit B
In words: inhibition of ATP hydrolysis (inorganic phosphate release) by the purified complex; IC50 […], Ki calculated; CV was a suspension. The class given is biochemical.

Data set [2] concerns T2, Nc1ncnc2c1ncn2[C@@H]1O[C@H](COP(=O)(O)OP(=O)(O)OP(=O)(O)O)[C@@H](O)[C@H]1O.
T2 construct: with V-ATPase subunit B
As to the kind of experiment: ATP hydrolysis kinetics (inorganic phosphate release), Lineweaver–Burk Km. The format is biochemical, Mythimna separata. The conditions noted are these: Mg2+ ([…] MgCl2) ATP binding site of the AB complex (by docking: D416, D436, K437, K438 of subunit A and T439 of subunit B).

T1 sequence (A0AAD8DTT7 1-617, stated change not applied): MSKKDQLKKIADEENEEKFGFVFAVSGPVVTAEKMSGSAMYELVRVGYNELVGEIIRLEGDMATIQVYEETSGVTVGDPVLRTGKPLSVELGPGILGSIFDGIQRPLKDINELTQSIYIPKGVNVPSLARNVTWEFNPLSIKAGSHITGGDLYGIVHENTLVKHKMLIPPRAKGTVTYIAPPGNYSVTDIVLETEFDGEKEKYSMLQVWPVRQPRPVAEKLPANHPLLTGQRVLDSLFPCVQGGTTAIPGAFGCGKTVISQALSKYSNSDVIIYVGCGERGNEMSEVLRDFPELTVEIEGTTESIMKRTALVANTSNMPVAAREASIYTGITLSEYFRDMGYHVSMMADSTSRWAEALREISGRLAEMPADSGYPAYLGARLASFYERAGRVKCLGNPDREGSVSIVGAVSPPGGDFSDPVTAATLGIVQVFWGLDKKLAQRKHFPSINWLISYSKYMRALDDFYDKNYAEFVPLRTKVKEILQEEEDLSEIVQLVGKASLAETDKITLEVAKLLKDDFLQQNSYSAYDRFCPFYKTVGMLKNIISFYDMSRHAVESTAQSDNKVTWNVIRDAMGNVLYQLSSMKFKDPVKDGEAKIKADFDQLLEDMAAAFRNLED
T1 sequence (A0A0U1XFD8 1-497): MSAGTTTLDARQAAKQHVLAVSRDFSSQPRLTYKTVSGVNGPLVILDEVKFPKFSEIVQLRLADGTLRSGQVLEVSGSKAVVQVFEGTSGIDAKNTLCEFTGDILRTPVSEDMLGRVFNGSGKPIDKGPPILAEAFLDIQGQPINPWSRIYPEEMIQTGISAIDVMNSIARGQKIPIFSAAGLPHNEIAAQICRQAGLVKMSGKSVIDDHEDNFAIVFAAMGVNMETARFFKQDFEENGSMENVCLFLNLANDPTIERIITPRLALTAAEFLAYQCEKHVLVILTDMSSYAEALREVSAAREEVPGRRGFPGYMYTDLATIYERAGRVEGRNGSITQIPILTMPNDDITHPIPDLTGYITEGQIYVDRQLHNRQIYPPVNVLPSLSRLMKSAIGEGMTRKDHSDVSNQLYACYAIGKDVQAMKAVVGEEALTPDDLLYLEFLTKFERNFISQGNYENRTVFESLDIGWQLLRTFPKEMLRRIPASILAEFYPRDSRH

For orientation: Ki means a measure of affinity in units of concentration, obtained from inhibition or displacement. `CC(=O)O[C@H]1C[C@](C)(O)C23OC(C)(C)[C@H]([C@H](OC(=O)C(C)C)[C@@H](OC(=O)c4ccccc4)[C@]2(COC(=O)C(C)C)[C@H]1OC(C)=O)[C@H]3O` [CV, Celangulin V]: the Ki in data set [1] is 10 µM.
For orientation: Km means the substrate concentration at which the rate is half of its maximum. Regarding “V-ATPase subunit A (TSCA mutant) in complex with subunit B (Mythimna separata; A0AAD8DTT7:C254A/A0AAD8DTT7:T257S)”, in data set [2], the Km is 268 µM.
